# Target: ERα (estrogen receptor α) (Homo sapiens, UniProt P03372)
# Assay: competitive radioligand binding assay with tritiated […]β-estradiol on recombinant hERα
# Parameters: gene ESR1; recombinant hERα
# ERα (estrogen receptor α), sequence (P03372 whole entry): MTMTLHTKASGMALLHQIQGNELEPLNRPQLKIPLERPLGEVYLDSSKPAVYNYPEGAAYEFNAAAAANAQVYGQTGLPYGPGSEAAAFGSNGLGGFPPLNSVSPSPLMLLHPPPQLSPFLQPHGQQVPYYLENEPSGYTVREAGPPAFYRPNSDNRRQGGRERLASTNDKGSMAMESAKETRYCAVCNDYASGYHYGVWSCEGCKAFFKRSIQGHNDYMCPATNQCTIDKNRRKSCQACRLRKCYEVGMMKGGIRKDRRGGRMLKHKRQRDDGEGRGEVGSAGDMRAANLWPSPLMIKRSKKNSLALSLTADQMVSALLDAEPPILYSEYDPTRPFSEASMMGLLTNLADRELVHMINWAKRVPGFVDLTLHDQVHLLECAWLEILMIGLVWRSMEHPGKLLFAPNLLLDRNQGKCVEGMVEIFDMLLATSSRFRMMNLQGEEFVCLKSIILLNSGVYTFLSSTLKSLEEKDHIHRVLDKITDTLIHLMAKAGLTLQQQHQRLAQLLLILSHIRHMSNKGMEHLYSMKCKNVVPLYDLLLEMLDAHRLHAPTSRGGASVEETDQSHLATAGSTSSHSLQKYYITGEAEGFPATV
row,Compound,Ki
1,CC/C(=C(\c1ccc(C#Cc2cc(CN(CC(=O)[O-])CC(=O)[O-])nc(CN(CC(=O)[O-])CC(=O)[O-])c2)cc1)c1ccc(OCCN(C)C)cc1)c1ccccc1.[Gd+3].[Na+] [TPTA-Gd],130 ± 6 nM
2,C[C@]12CC[C@@H]3c4ccc(O)cc4CC[C@H]3[C@@H]1CC[C@@]2(O)C#Cc1cc(CN(CC(=O)[O-])CC(=O)[O-])nc(CN(CC(=O)[O-])CC(=O)[O-])c1.[Gd+3].[Na+] [EPTA-Gd],970 ± 70 nM

# From article PMC4846659, “Estrogen Receptor-Targeted Contrast Agents for Molecular Magnetic Resonance Imaging of Breast Cancer Hormonal Status” (Frontiers in Oncology, 2016)
